Laboratory results: patent US20230117324A1, “OXAZINE MONOACYLGLYCEROL LIPASE (MAGL) INHIBITORS” (Hoffmann-La Roche Inc., priority 2018, published 2023)

target: T1, MAGL (recombinant wild-type) (Homo sapiens, UniProt Q99685); assay: MAGL inhibition, 4-NPA assay (hydrolysis of 4-nitrophenylacetate, absorbance at 405 nm); format: biochemical; conditions: 4-NPA assay (footnote [a]: values not marked [b])
T1 sequence (Q99685 1-303): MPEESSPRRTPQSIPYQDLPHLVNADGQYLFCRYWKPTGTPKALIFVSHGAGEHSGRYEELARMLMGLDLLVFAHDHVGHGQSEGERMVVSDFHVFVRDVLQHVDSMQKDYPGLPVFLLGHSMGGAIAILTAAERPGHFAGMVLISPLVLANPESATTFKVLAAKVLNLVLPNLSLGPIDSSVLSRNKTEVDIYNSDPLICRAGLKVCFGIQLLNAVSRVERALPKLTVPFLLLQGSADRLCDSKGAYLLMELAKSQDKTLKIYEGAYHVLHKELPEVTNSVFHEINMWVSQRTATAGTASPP
Method: Compounds were profiled for MAGL inhibitory activity by measuring the enzymatic activity of MAGL by following the hydrolysis of 4-nitrophenylacetate resulting in 4-nitrophenol, which absorbs at 405-412 nm (G. G. Muccioli, G. Labar, D. M. Lambert, Chem. Bio. Chem. 2008, 9, 2704-2710). This assay is hereinafter abbreviated “4-NPA assay”.
The assay was carried out in 384 well assay plates (black with clear bottom, non-binding surface treated, Corning Ref. 3655) in a total volume of 40 μL. Compound dilutions were made in 100% DMSO (VWR Chemicals 23500.297) in a polypropylene plate in 3-fold dilution steps to give a final concentration range in the assay from 25 μM to 1.7 nM. 1 μL compound dilutions (100% DMSO) were added to 19 μL MAGL (recombinant wild-type) in assay buffer (50 mM TRIS (GIBCO, 15567-027), 1 mM EDTA (Fluka, 03690-100 mL)). The plate was shaked for 1 min at 2000 rpm (Variomag Teleshake) and then incubated for 15 min at RT. To start the reaction, 20 μL 4-Nitrophenlyacetate (Sigma N-8130) in assay buffer with 6% EtOH was added. The final concentrations in the assay were 1 nM MAGL and 300 μM 4-Nitrophenylacetate. After shaking (1 min, 2000 rpm) and 5 min incubation at RT, the absorbance at 405 nm was measured for a first time (Molecular Devices, SpectraMax Paradigm). A second measurement was then done after incubation for 80 min at RT. From the two measurements, the slope was calculated by subtracting the first from the second measurement.

Point of comparison: `O=C1CO[C@@H]2CCN(C(=O)N3CCN(C(c4ccc(F)cc4)c4ccc(F)cc4)CC3)C[C@@H]2N1` (stereo in doubt) [Example 13, (−)-(cis)-6-(4-(bis(4-Fluorophenyl)methyl)piperazine-1-carbonyl)hexahydro-2H-pyrido[4,3-b][1,4]oxazin-3(4H)-one], IC50 88 nM. Against it:
- O=C1CO[C@H]2CCN(C(=O)N3CCC(c4cn(CCO)c5ccc(Cl)cc45)CC3)C[C@H]2N1 (single isomer, unassigned) [Example 25, (+)- or (−)-cis-6-(4-(5-Chloro-1-(2-hydroxyethyl)-1H-indol-3-yl)piperidine-1-carbonyl)hexahydro-2H-pyrido[4,3-b][1,4]oxazin-3(4H)-one] — 44-fold lower, 2 nM
- O=C1CO[C@H]2CCN(C(=O)N3CCC([C@H](CCO)c4ccc(F)cc4)CC3)C[C@H]2N1 (single isomer, unassigned) [Example 32, (−)-(4aR,8aS)--6-(4-((S or R)-1-(4-Fluorophenyl)-3-hydroxypropyl)piperidine-1-carbonyl)hexahydro-2H-pyrido[4,3-b][1,4]oxazin-3(4H)-one] — 2.3-fold higher, 203 nM
- C[C@H](Oc1ccc(F)cc1Cl)C1CCN(C(=O)N2CC[C@@H]3OCC(=O)N[C@@H]3C2)CC1 (single isomer, unassigned) [Example 33, (+) or (−)-cis-6-(4-((S or R)-1-(2-Chloro-4-fluorophenoxy)ethyl)piperidine-1-carbonyl)hexahydro-2H-pyrido[4,3-b][1,4]oxazin-3(4H)-one] — 1.7-fold lower, 51 nM
- C[C@@H](Oc1ccc(F)cc1Cl)C1CCN(C(=O)N2CC[C@@H]3OCC(=O)N[C@@H]3C2)CC1 (single isomer, unassigned) [Example 34, (+) or (−)-cis-6-(4-((R or S)-1-(2-Chloro-4-fluorophenoxy)ethyl)piperidine-1-carbonyl)hexahydro-2H-pyrido[4,3-b][1,4]oxazin-3(4H)-one] — 88-fold lower, 1 nM
- COc1cncc(C2CCN(C(=O)N3CC[C@@H]4OCC(=O)N[C@@H]4C3)CC2)c1 (single isomer, unassigned) [Example 35, (+) or (−)-cis-6-(4-(5-Methoxypyridin-3-yl)piperidine-1-carbonyl)hexahydro-2H-pyrido[4,3-b][1,4]oxazin-3(4H)-one] — 27-fold higher, 2400 nM
- O=C1CO[C@@H]2CCN(C(=O)N3CCC(C(c4ccc(F)cc4)c4ccc(F)cc4)CC3)C[C@@H]2N1 (single isomer, unassigned) [Example 36, (+) or (−)-cis-6-(4-(Bis(4-fluorophenyl)methyl)piperidine-1-carbonyl)hexahydro-2H-pyrido[4,3-b][1,4]oxazin-3(4H)-one] — within 1.5-fold, 85 nM
- O=C1CO[C@H]2CCN(C(=O)N3CCC(C(F)(F)c4ccc(Cl)cc4)CC3)C[C@H]2N1 (single isomer, unassigned) [Example 37, (+) or (−)-cis-6-(4-((4-Chlorophenyl)difluoromethyl)piperidine-1-carbonyl)hexahydro-2H-pyrido[4,3-b][1,4]oxazin-3(4H)-one] — 2.6-fold lower, 34 nM
- O=C1CO[C@H]2CCN(C(=O)N3CCC(c4ccc(OC(F)(F)F)cn4)CC3)C[C@H]2N1 (single isomer, unassigned) [Example 38, (+) or (−)-cis-6-(4-(5-(Trifluoromethoxy)pyridin-2-yl)piperidine-1-carbonyl)hexahydro-2H-pyrido[4,3-b][1,4]oxazin-3(4H)-one] — 7.3-fold higher, 644 nM
- O=C1CO[C@H]2CCN(C(=O)N3CCC(C(F)(F)c4ccc(F)cc4Cl)CC3)C[C@H]2N1 (single isomer, unassigned) [Example 39, (+) or (−)-cis-6-(4-((2-Chloro-4-fluorophenyl)difluoromethyl)piperidine-1-carbonyl)hexahydro-2H-pyrido[4,3-b][1,4]oxazin-3(4H)-one] — 4.2-fold lower, 21 nM
- CCc1cncc(C2CCN(C(=O)N3CC[C@@H]4OCC(=O)N[C@@H]4C3)CC2)c1 (single isomer, unassigned) [Example 40, (+) or (−)-cis-6-(4-(5-Ethylpyridin-3-yl)piperidine-1-carbonyl)hexahydro-2H-pyrido[4,3-b][1,4]oxazin-3(4H)-one] — 7.8-fold higher, 683 nM
- CC(F)(F)c1ccc(C2CCN(C(=O)N3CC[C@@H]4OCC(=O)N[C@@H]4C3)CC2)nc1 (single isomer, unassigned) [Example 41, (+) or (−)-cis-6-(4-(5-(1,1-Difluoroethyl)pyridin-2-yl)piperidine-1-carbonyl)hexahydro-2H-pyrido[4,3-b][1,4]oxazin-3(4H)-one] — 5.5-fold higher, 485 nM
- Cn1nc(C2CCN(C(=O)N3CC[C@@H]4OCC(=O)N[C@@H]4C3)CC2)c2ccc(Cl)cc21 (single isomer, unassigned) [Example 42, (+) or (−)-cis-6-(4-(6-Chloro-1-methyl-1H-indazol-3-yl)piperidine-1-carbonyl)hexahydro-2H-pyrido[4,3-b][1,4]oxazin-3(4H)-one] — within 1.5-fold, 103 nM
- Cc1cccc(C(c2ccccc2)C2CCN(C(=O)N3CC[C@@H]4OCC(=O)N[C@@H]4C3)CC2)c1 (single isomer, unassigned) [Example 80, (4aR,8aS)-6-[4-[(S or R)-m-Tolyl(phenyl)methyl]piperidine-1-carbonyl]-4,4a,5,7,8,8a-hexahydropyrido[4,3-b][1,4]oxazin-3-one] — 220-fold lower, 0.4 nM
- O=C1CO[C@H]2CCN(C(=O)N3CCC(C(CCO)c4ccc(F)cc4)CC3)C[C@H]2N1 (single isomer, unassigned; (+)) [Example 31, (+)-(4aR,8aS)-6-(4-((R or S)-1-(4-Fluorophenyl)-3-hydroxypropyl)piperidine-1-carbonyl)hexahydro-2H-pyrido[4,3-b][1,4]oxazin-3(4H)-one] — 5.2-fold lower, 17 nM
- O=C1CO[C@H]2CCN(C(=O)N3CCC(c4cncc(C(F)(F)F)c4)CC3)C[C@H]2N1 [Example 29, (4aR,8aS)-6-(4-(5-(Trifluoromethyl)pyridin-3-yl)piperidine-1-carbonyl)hexahydro-2H-pyrido[4,3-b][1,4]oxazin-3(4H)-one] — 8-fold higher, 703 nM
- O=C1CO[C@H]2CCN(C(=O)N3CCC(C(F)(F)c4ccc(C(F)(F)F)cc4)CC3)C[C@H]2N1 [Example 30, (4aR,8aS)-6-(4-(Difluoro(4-(trifluoromethyl)phenyl)methyl)piperidine-1-carbonyl)hexahydro-2H-pyrido[4,3-b][1,4]oxazin-3(4H)-one] — 3.5-fold lower, 25 nM
- O=C1CO[C@H]2CCN(C(=O)N3CC(C(c4ccc(F)cc4)c4ccc(F)cc4)C3)C[C@H]2N1 [Example 82, (4aR,8aS)-6-(3-(bis(4-Fluorophenyl)methyl)azetidine-1-carbonyl)hexahydro-2H-pyrido[4,3-b][1,4]oxazin-3(4H)-one] — 14-fold higher, 1200 nM
